The assay addresses POLRMT (Homo sapiens (Human), UniProt O00411). The experiment in a line: homogeneous TR-FRET assay of mitochondrial transcription (inhibition of POLRMT). The class given is biochemical. The conditions noted are these: 7.5 nM POLRMT, 15 nM TFB2M, 30 nM TFAM, 60 minutes at 37° C. As for the experimental part: The inhibitory activity of the compounds of the present invention against POLRMT were determined by assays based on Bergbrede, T., et al., “An adaptable high-throughput technology enabling the identification of specific transcription modulators,” SLAC Discov., 22, 378-386 (2017).
The ability of some compounds of the present invention to inhibit POLRMT were determined in a homogeneous TR-FRET Assay using high-throughput screening in a 384-well plate format. This method is used to monitor the activity of mitochondrial transcription through measurement of its product, a 407 bp long RNA transcript. Detection of the product is facilitated by hybridization of two DNA-oligonucleotide probes to specific and adjacent sequences within the RNA product sequence. Upon annealing of the probes, two fluorophores are coupled directly to an acceptor nucleotide probe (ATTO647, 5′), or introduced via a coupled streptavidin with a biotinylated donor nucleotide probe (Europium cryptate) that is brought into sufficient proximity to serve as a fluorescence-donor-acceptor pair. Thus, a FRET signal at 665 nm is generated upon excitation at 340 nm.
Proteins used as transcription factors (POLRMT: NP_005026.3, TFAM: NP_003192.1, TFB2M: NP_071761.1) are diluted from their stocks to working concentrations of 1 μM, 20 μM and 4 μM respectively, in a dilution buffer containing 20 mM Tris-HCl (pH 8.0), 200 mM NaCl, 10% (v/v) glycerol, 1 mM Dithiothreitol (DTT), 0.5 mM EDTA.
DNA template is a pUC18 plasmid with the mitochondrial light strand promotor sequence (1-477) cloned between HindIII and BamHI sites. The DNA template is restriction linearized proximal to the promotor 3′-end (pUC-LSP).
The reaction mixture (10 uL) containing 7.5 nM POLRMT, 15 nM of TFB2M, 30 nM of TFAM, 0.5 nM of DNA template and 500 μM nucleotide triphosphate mix (NTPs) in a reaction buffer (containing 10 mM Tris-HCl (pH 7.5), 10 mM MgCl2, 40 mM NaCl, 10 mM DTT, 0.005% (w/v) Tween-20, 160 units/ml Rnase inhibitor and 0.1 mg/mL BSA) are dispensed to compounds in microplates, using a Thermo Multidrop® dispenser, and incubated at 37° C. in a VWR INCU-Line incubator for 60 minutes after mixing. No nucleotide triphosphate mix is added to negative control samples. Microplates with compounds to be tested in the assay are prepared from 10 mM compound stocks in 100% DMSO, equal amounts of DMSO without any compound are added to positive control and negative control samples.
During the incubation, a mix of the detection reagents is prepared in a buffer such that the enzymatic reaction is terminated due to chelating of Mg-ions and increased ionic strength, containing 50 mM Tris-HCl (pH 7.5), 700 mM NaCl, 20 mM EDTA, and 0.01% (w/v) Tween-20. Europium-streptavidin is pre-incubated with a 200-fold molar excess of a random sequence oligonucleotide to block unspecific binding of oligo, for two hours at ambient temperature in the dark. Afterwards, the blocked Europium-streptavidin is kept on ice until use.
At the end of the enzymatic reaction time, 5 μL detection oligo mix in the detection buffer is added, and assay plates are mixed and kept at ambient temperature for one hour, protected from light. The concentration of the Acceptor nucleotide oligo (e.g., ATTO647N-5′-[…]-3′ (SEQ ID NO: 1)) and Donor nucleotide oligo (e.g., bio-5′-AACACATCTCT(-bio)GCCAAACCCCA-bio-3′ (SEQ ID NO: 2)) in each assay well is 1 nM, and 3 nM, respectively.
After incubation with oligo mix, 5 μL of pre-blocked Europium-streptavidin reagent is dispensed to each assay well, assay plates are again mixed and kept at ambient temperature for one hour, protected from light.
The generated signal is measured with BMG Pherastar microtiter plate reader with a TRF light unit, using excitation at 340 nm, an integration time of 200 μs, and a delay time of […], before detection at 620 nm and 665 nm. The ratio of donor- and acceptor-fluorescence is used as a measure of the generated transcript product (i.e. enzymatic activity).

Molecules are shown by their SMILES.

Chain of POLRMT (O00411 42-1230): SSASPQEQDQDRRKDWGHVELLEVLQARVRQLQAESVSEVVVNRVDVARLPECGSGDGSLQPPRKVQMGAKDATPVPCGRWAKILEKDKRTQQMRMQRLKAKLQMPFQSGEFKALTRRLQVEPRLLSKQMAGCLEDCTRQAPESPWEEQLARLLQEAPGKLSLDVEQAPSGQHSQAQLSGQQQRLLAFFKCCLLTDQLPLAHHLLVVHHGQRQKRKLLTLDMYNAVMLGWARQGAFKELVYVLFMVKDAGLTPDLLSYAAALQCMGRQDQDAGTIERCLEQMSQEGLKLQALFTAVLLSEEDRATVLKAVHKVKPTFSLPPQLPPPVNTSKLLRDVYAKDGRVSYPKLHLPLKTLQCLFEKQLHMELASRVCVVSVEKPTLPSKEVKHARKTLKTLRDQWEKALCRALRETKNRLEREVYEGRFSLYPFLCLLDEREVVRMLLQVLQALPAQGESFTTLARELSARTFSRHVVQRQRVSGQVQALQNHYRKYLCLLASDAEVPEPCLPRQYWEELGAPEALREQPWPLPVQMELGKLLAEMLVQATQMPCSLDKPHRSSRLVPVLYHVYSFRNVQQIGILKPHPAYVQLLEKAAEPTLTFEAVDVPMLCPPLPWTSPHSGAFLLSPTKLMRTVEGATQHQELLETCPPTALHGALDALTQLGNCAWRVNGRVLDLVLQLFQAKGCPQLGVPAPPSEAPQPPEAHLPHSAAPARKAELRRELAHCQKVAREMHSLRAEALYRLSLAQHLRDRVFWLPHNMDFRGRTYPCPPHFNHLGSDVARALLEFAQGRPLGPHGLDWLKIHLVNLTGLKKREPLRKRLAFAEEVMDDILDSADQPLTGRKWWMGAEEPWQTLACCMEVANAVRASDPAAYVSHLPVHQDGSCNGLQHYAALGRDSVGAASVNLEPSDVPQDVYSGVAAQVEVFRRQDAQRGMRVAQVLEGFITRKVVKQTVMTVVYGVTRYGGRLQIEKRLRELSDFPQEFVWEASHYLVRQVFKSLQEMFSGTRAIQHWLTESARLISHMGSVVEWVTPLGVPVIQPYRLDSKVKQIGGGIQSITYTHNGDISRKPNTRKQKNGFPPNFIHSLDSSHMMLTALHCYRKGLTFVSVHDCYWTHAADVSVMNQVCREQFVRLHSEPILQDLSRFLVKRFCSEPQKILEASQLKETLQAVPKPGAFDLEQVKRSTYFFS

As a reminder, the IC50 is the concentration needed to halve the response being measured. For the compound `CC(=O)N1CCN(C(=O)c2ccc3c(-c4ccccc4C)ccnc3c2)CC1` [Example 9, 1-(4-(4-(o-tolyl)quinoline-7-carbonyl)piperazin-1-yl)ethan-1-one], the IC50 was greater than 100 µM.
As for `Cc1ccccc1-c1ccnc2cc(CO)ccc12` [Example 10, (4-(o-tolyl)quinolin-7-yl)methanol], the half-maximal inhibitory concentration (IC50) was determined as 50 µM.
In the case of `CC(=O)Nc1ccc2c(-c3ccccc3C)ccnc2c1` [Example 11, N-(4-(o-tolyl)quinolin-7-yl)acetamide], it took 10 µM to reach half-maximal inhibition (IC50).
The compound `Cc1ccccc1-c1ccnc2cc(CNC(=O)OC(C)(C)C)ccc12` [Example 12, tert-butyl ((4-(o-tolyl)quinolin-7-yl)methyl)carbamate] returned an IC50 of 15 µM.
The compound `Cc1ccccc1-c1ccnc2cc(CNC(=O)C3CCCC3)ccc12` [Example 13, N-((4-(o-tolyl)quinolin-7-yl)methyl)cyclopentanecarboxamide] came in with an IC50 of 29 µM.
On to `Cc1ccccc1-c1ccnc2cc(CNS(=O)(=O)c3ccccc3)ccc12` [Example 14, N-((4-(o-tolyl)quinolin-7-yl)methyl)benzenesulfonamide], for which the midpoint of inhibition, the IC50, lay at 68 µM.
As for `COC(=O)NCc1ccc2c(-c3ccccc3C)ccnc2c1` [Example 15, methyl ((4-(o-tolyl)quinolin-7-yl)methyl)carbamate], the IC50 was 59 µM.
Regarding `Cc1ccccc1-c1ccnc2cc(N(C)C)ccc12` [Example 16, N,N-dimethyl-4-(o-tolyl)quinolin-7-amine], the IC50 stood at 7 µM.
The result for `Cc1ccccc1-c1ccnc2cc(CCO)ccc12` [Example 17, 2-(4-(o-tolyl)quinolin-7-yl)ethan-1-ol] reads 10 µM; that for `Cc1ccccc1-c1ccnc2cc(C(C)O)ccc12` (centres unmarked) [Example 18, 1-(4-(o-tolyl)quinolin-7-yl)ethan-1-ol], 36 µM.
Regarding `COCc1ccc2c(-c3ccccc3C)ccnc2c1` [Example 19, 7-(methoxymethyl)-4-(o-tolyl)quinoline], the IC50 was determined as 5 µM.
The figure for `Cc1ccccc1-c1ccnc2cc(CN3CCOCC3)ccc12` [Example 20, 4-((4-(o-tolyl)quinolin-7-yl)methyl)morpholine] is greater than 100 µM; for `CC(=O)N1CCN(Cc2ccc3c(-c4ccccc4C)ccnc3c2)CC1` [Example 21, 1-(4-((4-(o-tolyl)quinolin-7-yl)methyl)piperazin-1-yl)ethan-1-one] it is greater than 100 µM; for `Cc1ccccc1-c1ccnc2cc(CNS(C)(=O)=O)ccc12` [Example 22, N-((4-(o-tolyl)quinolin-7-yl)methyl)methanesulfonamide] it is 72 µM.
Take `Cc1ccccc1-c1ccnc2cc(CN(C)S(=O)(=O)c3ccccc3)ccc12` [Example 23, N-methyl-N-((4-(o-tolyl)quinolin-7-yl)methyl)benzenesulfonamide]: the IC50 was greater than 100 µM.
The figure for `Cc1ccccc1-c1ccnc2cc(CN(C)C(=O)C3CCCC3)ccc12` [Example 24, N-methyl-N-((4-(o-tolyl)quinolin-7-yl)methyl)cyclopentanecarboxamide] is 10 µM; for `Cc1ccccc1-c1ccnc2cc(CN3CCCC3=O)ccc12` [Example 25] it is greater than 100 µM; for `Cc1ccccc1-c1ccnc2cc(CN3CCCC3)ccc12` [Example 26, 7-(pyrrolidin-1-ylmethyl)-4-(o-tolyl)quinoline] it is greater than 100 µM.
On to `COC(C)c1ccc2c(-c3ccccc3C)ccnc2c1` (centres unmarked) [Example 27, 7-(1-methoxyethyl)-4-(o-tolyl)quinoline], for which the IC50 is 8 µM.
The result for `Cc1ccccc1-c1ccnc2cc(CN3CCN(C)CC3)ccc12` [Example 28, 7-((4-methylpiperazin-1-yl)methyl)-4-(o-tolyl)quinoline] reads greater than 100 µM; that for `Cc1ccccc1-c1ccnc2cc(CC(=O)O)ccc12` [Example 29, 2-(4-(o-tolyl)quinolin-7-yl)acetic acid], 97 µM; that for `Cc1ccccc1-c1ccnc2cc(CC(=O)NC3CC3)ccc12` [Example 30, N-cyclopropyl-2-(4-(o-tolyl)quinolin-7-yl)acetamide], 91 µM.
The result for `COCCc1ccc2c(-c3ccccc3C)ccnc2c1` [Example 31, 7-(2-methoxyethyl)-4-(o-tolyl)quinoline] reads 6 µM; that for `Cc1ccccc1-c1ccnc2cc(CN(C)S(C)(=O)=O)ccc12` [Example 32, N-methyl-N-((4-(o-tolyl)quinolin-7-yl)methyl)methanesulfonamide], 24 µM.
`Cc1ccccc1-c1ccnc2cc(C#N)ccc12` [Example 33, 4-(o-tolyl)quinoline-7-carbonitrile] gave an IC50 of 74 µM.
`Cc1ccccc1-c1ccnc2cc(CC(=O)N3CCOCC3)ccc12` [Example 36, 1-morpholino-2-(4-(o-tolyl)quinolin-7-yl)ethan-1-one] gave an IC50 greater than 100 µM.
The result for `Cc1ccccc1-c1ccnc2cc(CC(=O)N3CCN(C)CC3)ccc12` [Example 39, 1-(4-methylpiperazin-1-yl)-2-(4-(o-tolyl)quinolin-7-yl)ethan-1-one] reads greater than 100 µM; that for `CC(=O)N1CCN(C(=O)Cc2ccc3c(-c4ccccc4C)ccnc3c2)CC1` [Example 40, 1-(4-acetylpiperazin-1-yl)-2-(4-(o-tolyl)quinolin-7-yl)ethan-1-one], greater than 100 µM.
Take `Cc1ccccc1-c1ccnc2cc(CC(=O)NCC3CC3)ccc12` [Example 41, N-(cyclopropylmethyl)-2-(4-(o-tolyl)quinolin-7-yl)acetamide]: inhibition was half-maximal at 91 µM (IC50).
Take `Cc1ccccc1-c1ccnc2cc(CC(N)=O)ccc12` [Example 42, 2-(4-(o-tolyl)quinolin-7-yl)acetamide]: the IC50 is greater than 100 µM.
`Cc1ccccc1-c1ccnc2cc(CC(=O)N(C)C)ccc12` [Example 43, N,N-dimethyl-2-(4-(o-tolyl)quinolin-7-yl)acetamide]: the IC50 was greater than 100 µM.
`CNC(=O)Cc1ccc2c(-c3ccccc3C)ccnc2c1` [Example 44, N-methyl-2-(4-(o-tolyl)quinolin-7-yl)acetamide] registered an IC50 greater than 100 µM.
Regarding `Cc1ccccc1-c1ccnc2cc(NC(C)C(=O)N3CCCCC3)ccc12` (centres unmarked) [Example 45, 1-(piperidin-1-yl)-2-((4-(o-tolyl)quinolin-7-yl)amino)propan-1-one], half-maximal inhibition (IC50) was put at 4 µM.
The result for `Cc1ccccc1-c1ccnc2cc(NC(C)C(=O)N3CCOCC3)ccc12` (centres unmarked) [Example 46, 1-morpholino-2-((4-(o-tolyl)quinolin-7-yl)amino)propan-1-one] reads 8 µM.
Compound `Cc1ccccc1-c1ccnc2cc(NC(C)C(=O)N(C)C)ccc12` (centres unmarked) [Example 47, N,N-dimethyl-2-((4-(o-tolyl)quinolin-7-yl)amino)propanamide] came in with an IC50 of 26 µM.
For `Cc1ccccc1-c1ccnc2cc(C(C)OCC(=O)O)ccc12` (centres unmarked) [Example 54, 2-(1-(4-(o-tolyl)quinolin-7-yl)ethoxy)acetic acid], the IC50 was greater than 100 µM.
With `Cc1ccccc1-c1ccnc2cc(C(C)OCC(=O)N(C)C)ccc12` (centres unmarked) [Example 55, N,N-dimethyl-2-(1-(4-(o-tolyl)quinolin-7-yl)ethoxy)acetamide], the IC50 was greater than 100 µM.
The result for `Cc1ccccc1-c1ccnc2cc(C(C)OCC(N)=O)ccc12` (centres unmarked) [Example 56, 2-(1-(4-(o-tolyl)quinolin-7-yl)ethoxy)acetamide] reads greater than 100 µM.

The values are drawn from patent US20250353816A1, “QUINOLINES AS MODULATORS OF POLRMT” (Pretzel Therapeutics, Inc., priority 2024, published 2025).
